Assay results published in patent US7799821B2, “Therapeutic compounds” (Allergan, Inc., priority 2004, dated 2010).
Where two headings read alike, the source gives them in different places.

Tests used:
[1] = biological target: T1, hEP2/Gqs5 (Homo sapiens, UniProt P43116); assay: FLIPR calcium signal, hEP2; assay type: cell-based
T1 construct: expressed in transfected cells; host or cells: HEK-293(EBNA)
Protocol: (§1) HEK-293(EBNA) cells, stably expressing one type or subtype of recombinant human prostaglandin receptors (prostaglandin receptors expressed: hDP/Gqs5; hEP1; hEP2/Gqs5; hEP3A/Gqi5; hEP4/Gqs5; hFP; hIP; hTP), were cultured in 100 mm culture dishes in high-glucose DMEM medium containing 10% fetal bovine serum, 2 mM 1-glutamine, 250 μg/ml geneticin (G418) and 200 μg/ml hygromycin B as selection markers, and 100 units/ml penicillin G, 100 μg/ml streptomycin and 0.25 μg/ml amphotericin B. • (b) Calcium Signal Studies on the FLIPR™
(§2) Cells were seeded at a density of 5×10^4 cells per well in Biocoat® Poly-D-lysine-coated black-wall, clear-bottom 96-well plates (Becton-Dickinson) and allowed to attach overnight in an incubator at 37° C. Cells were then washed two times with HBSS-HEPES buffer (Hanks Balanced Salt Solution without bicarbonate and phenol red, 20 mM HEPES, pH 7.4) using a Denley Cellwash plate washer (Labsystems). After 45 minutes of dye-loading in the dark, using the calcium-sensitive dye Fluo-4 AM at a final concentration of 2 μM, plates were washed four times with HBSS-HEPES buffer to remove excess dye leaving 100 μl in each well. Plates were re-equilibrated to 37° C. for a few minutes.
(§3) Cells were excited with an Argon laser at 488 nm, and emission was measured through a 510-570 nm bandwidth emission filter (FLIPR™, Molecular Devices, Sunnyvale, Calif.). Drug solution was added in a 50 μl volume to each well to give the desired final concentration. The peak increase in fluorescence intensity was recorded for each well. On each plate, four wells each served as negative (HBSS-HEPES buffer) and positive controls (standard agonists: BW245C (hDP); PGE2 (hEP1; hEP2/Gqs5; hEP3A/Gqi5; hEP4/Gqs5); PGF2α (hFP); carbacyclin (hIP); U-46619 (hTP), depending on receptor). The peak fluorescence change in each drug-containing well was then expressed relative to the controls.
(§4) Compounds were tested in a high-throughput (HTS) or concentration-response (CoRe) format. In the HTS format, forty-four compounds per plate were examined in duplicates at a concentration of 10^−5 M. To generate concentration-response curves, four compounds per plate were tested in duplicates in a concentration range between 10^−5 and 10^−11 M. The duplicate values were averaged. In either, HTS or CoRe format each compound was tested on at least 3 separate plates using cells from different passages to give an n≧3.

[2] = biological target: T2, hEP4/Gqs5 (Homo sapiens, UniProt P35408); assay: FLIPR calcium signal, hEP4; assay type: cell-based
T2 construct: expressed in transfected cells; host or cells: HEK-293(EBNA)
T2 sequence (P35408 whole entry): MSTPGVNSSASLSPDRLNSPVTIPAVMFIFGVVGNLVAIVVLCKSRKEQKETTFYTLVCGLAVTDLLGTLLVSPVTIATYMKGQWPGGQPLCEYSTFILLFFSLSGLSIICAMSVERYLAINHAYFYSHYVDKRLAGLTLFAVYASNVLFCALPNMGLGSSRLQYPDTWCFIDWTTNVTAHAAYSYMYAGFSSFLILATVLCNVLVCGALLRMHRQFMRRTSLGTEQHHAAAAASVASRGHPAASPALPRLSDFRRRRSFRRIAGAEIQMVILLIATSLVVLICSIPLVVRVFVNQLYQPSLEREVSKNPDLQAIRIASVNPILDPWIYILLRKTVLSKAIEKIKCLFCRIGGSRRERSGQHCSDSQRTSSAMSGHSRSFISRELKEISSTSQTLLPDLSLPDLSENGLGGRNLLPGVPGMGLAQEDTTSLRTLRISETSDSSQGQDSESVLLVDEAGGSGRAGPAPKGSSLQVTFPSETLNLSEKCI
Protocol: as §1, §2, §3, §4

[3] = biological target: T3, hEP3A/Gqi5 (Homo sapiens, UniProt P43115); assay: FLIPR calcium signal, hEP3A; assay type: cell-based
T3 construct: expressed in transfected cells; host or cells: HEK-293(EBNA)
T3 sequence (P43115 1-390): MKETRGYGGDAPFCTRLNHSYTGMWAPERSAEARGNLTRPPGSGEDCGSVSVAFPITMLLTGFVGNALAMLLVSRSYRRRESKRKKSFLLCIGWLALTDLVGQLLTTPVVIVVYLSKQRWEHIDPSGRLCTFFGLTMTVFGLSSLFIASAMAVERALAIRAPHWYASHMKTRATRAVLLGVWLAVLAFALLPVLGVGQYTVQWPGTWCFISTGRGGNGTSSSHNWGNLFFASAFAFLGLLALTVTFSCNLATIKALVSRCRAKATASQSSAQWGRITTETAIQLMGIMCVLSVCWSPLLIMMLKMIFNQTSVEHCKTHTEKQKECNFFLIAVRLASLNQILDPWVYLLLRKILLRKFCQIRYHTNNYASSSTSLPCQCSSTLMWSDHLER
Protocol: as §1, §2, §3, §4

[4] = biological target: T4, human EP2 receptors (Homo sapiens, UniProt P43116); assay: Competition radioligand binding ([3H]PGE2), EP2; conditions: for Ki: unit inferred, read-out: EP2 data Ki
T4 construct: expressed in transfected cells; host or cells: HEK 293
T4 sequence (P43116 whole entry): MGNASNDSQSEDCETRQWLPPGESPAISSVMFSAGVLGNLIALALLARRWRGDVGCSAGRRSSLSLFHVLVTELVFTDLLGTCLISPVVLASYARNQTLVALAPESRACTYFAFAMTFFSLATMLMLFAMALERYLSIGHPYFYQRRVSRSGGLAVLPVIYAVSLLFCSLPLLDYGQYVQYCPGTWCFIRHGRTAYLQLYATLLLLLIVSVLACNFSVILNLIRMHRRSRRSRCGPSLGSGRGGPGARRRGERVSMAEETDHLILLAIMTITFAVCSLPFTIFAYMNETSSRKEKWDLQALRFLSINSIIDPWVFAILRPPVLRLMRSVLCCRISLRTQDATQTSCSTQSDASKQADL
Protocol: Competition binding experiments were performed in a medium containing Hank's balanced salt solution, […], membranes (˜60 μg protein) or 2×10^5 cells from HEK 293 cells stably expressing human EP2 receptors, [^3H]PGE2 (10 nM) and various concentrations of test compounds in a total volume of 300 μl. Reaction mixtures were incubated at 23° C. for 60 min, and were filtered over Whatman GF/B filters under vacuum. Filters were washed three times with 5 ml ice-cold buffer containing 50 mM Tris/HCl (pH 7.3). Non-specific binding was estimated in the presence of excess unlabeled PGE2 (10 μM). Binding data fitted to the binding model for a single class of binding sites, using nonlinear regression analysis. IC50 values thus obtained were converted to Ki using the equation of Ki=(IC50/(1+[L]/KD) where [L] represents PGE2 concentration (10 nM) and KD the dissociation constant for [^3H]PGE2 at human EP2 receptors (40 nM).
(§5) HEK-293 cells stably expressing the human or feline FP receptor, or EP1, EP2, or EP4 receptors were washed with TME buffer, scraped from the bottom of the flasks, and homogenized for 30 sec using a Brinkman PT 10/35 polytron. TME buffer was added to achieve a final 40 ml volume in the centrifuge tubes (the composition of TME is 100 mM TRIS base, 20 mM MgCl2, […]; 10N HCl is added to achieve a pH of 7.4).
(§6) The cell homogenate was centrifuged at 19000 r.p.m. for 20 min at 4° C. using a Beckman Ti-60 rotor. The resultant pellet was resuspended in TME buffer to give a final 1 mg/ml protein concentration, as determined by Biorad assay. Radioligand binding competition assays vs. [^3H-]17 —phenyl PGF2α (5 nM) were performed in a 100 μl volume for 60 min. Binding reactions were started by adding plasma membrane fraction. The reaction was terminated by the addition of 4 ml ice-cold TRIS-HCl buffer and rapid filtration through glass fiber GF/B filters using a Brandel cell harvester. The filters were washed 3 times with ice-cold buffer and oven dried for one hour.
(§7) [^3H-] PGE2 (specific activity 180 Ci mmol) was used as the radioligand for EP receptors. [^3H] 17-phenyl PGF2α was employed for FP receptor binding studies. Binding studies employing EP1, EP2, EP4 and FP receptors were performed in duplicate in at least three separate experiments. A 200 μl assay volume was used. Incubations were for 60 min at 25° C. and were terminated by the addition of 4 ml of ice-cold 50 mM TRIS-HCl, followed by rapid filtration through Whatman GF/B filters and three additional 4 ml washes in a cell harvester (Brandel). Competition studies were performed using a final concentration of 5 nM [^3H]—PGE2, or 5 nM [^3H] 17-phenyl PGF2α and non-specific binding determined with 10^−5M of unlabeled PGE2, or 17-phenyl PGF2α, according to receptor subtype studied.

[5] = biological target: T5, EP4 receptors (Homo sapiens, UniProt P35408); assay: Radioligand binding ([3H]PGE2), EP4; conditions: unit inferred; read-out: EP4 data KI
T5 construct: expressed in transfected cells; host or cells: HEK-293
T5 sequence (P35408 whole entry): as the sequence (P35408 whole entry) above
Protocol: as §5, §6, §7

[6] = biological target: T6, HEK-EBNA cells expressing a PG EP2 receptor subtype (Homo sapiens, UniProt P43116); assay: cAMP assay, EP2; assay type: cell-based; conditions: unit inferred; read-out: EP2 data cAMP EC50
T6 construct: expressed in transfected cells; host or cells: HEK-EBNA
T6 sequence (P43116 whole entry): as the sequence (P43116 whole entry) above
Protocol: A 384-well drug plate was prepared to contain 6 test compounds, PGE2 and cAMP in 16 serial dilutions in triplicate, using a Biomek station. HEK-EBNA cells expressing a target PG receptor subtype (EP2 or EP4) were suspended in a stimulation buffer (HBSS, 0.1% BSA, 0.5 mM IBMX and 5 mM HEPES, pH 7.4) in a density of 10^4 cells/5 μl. The reaction was initiated by mixing 5 μL drug dilutions with 5 μl of HEK-EBNA cells in a well, carried out for 30 min at room temperature, and followed by the addition of 5 μl anti-cAMP acceptor beads in the control buffer with Tween-20 (25 mM NaCl, 0.03% Tween-20, 5 mM HEPES, pH7.4). After 30 min in the dark at room temperature, the mixtures were incubated with 15 μl biotinylated-cAMP/strepavidin donor beads in Lysis/Detection buffer (0.1% BSA, 0.3% Tween-20 and 5 mM HEPES, pH7.4) for 45 min at the room temperature. Fluorescence changes were read using a Fusion-alpha HT microplate reader.

[7] = FLIPR Ca2+ signal, HEK-293(EBNA), read-out: FUNCTIONAL EC50 HEP2
[8] = FLIPR Ca2+ signal, HEK-293(EBNA), read-out: FUNCTIONAL EC50 HEP4
[9] = FLIPR Ca2+ signal, HEK-293(EBNA), read-out: FUNCTIONAL EC50 HEP3A
[10] = unit inferred, other columns of the table in nM, read-out: EP2 data flipr EC50
[11] = unit inferred, read-out: EP4 data flipr EC50
[12] = read-out: Other Receptors EC50 hEP3A

T1 sequence (P43116 whole entry): as above

| SMILES | EC50 [1, 10] | Ki [5] | EC50 [6] | Ki [4] | further results |
| --- | --- | --- | --- | --- | --- |
| CCCC1(C(O)c2cccc([C@H]3[C@H](O)CC(=O)[C@@H]3C/C=C\CCCC(=O)OC)c2)CCC1 (stereo partly shown) | – | – | – | – | EC50 [1, 7]: > 10000 nM; EC50 [2, 8]: > 10 µM; EC50 [3, 9]: > 10000 nM |
| CCCC1(C(O)c2cccc([C@H]3[C@H](O)CC(=O)[C@@H]3C/C=C\CCCC(=O)O)c2)CCC1 (stereo partly shown) | – | – | – | – | EC50 [1, 7]: 5290 nM; EC50 [3, 9]: 1700 nM |
| CCCC1(C(O)c2cccc([C@@H]3[C@@H](CCCCCCC(=O)O)[C@H](Cl)C[C@H]3O)c2)CCC1 (stereo partly shown) | – | – | – | – | EC50 [1, 7]: 1480 nM; EC50 [3, 9]: 3120 nM |
| COC(=O)CCC/C=C\C[C@@H]1[C@@H](c2ccc(C(C)(C)C)cc2)[C@H](O)C[C@H]1Cl | – | – | – | – | EC50 [1, 7]: > 10000 nM; EC50 [3, 9]: > 10000 nM |
| CC(C)(C)C(O)c1ccc([C@@H]2[C@@H](CCCCCCC(=O)O)[C@H](Cl)C[C@H]2O)cc1 (stereo partly shown) | – | – | – | – | EC50 [1, 7]: 1260 nM; IC50 ([4]; read-out: BINDING IC50 HEP2): 3.63 µM; EC50 [2, 8]: > 10 µM |
| CCCCCC(O)c1ccc(N2C(=O)CC[C@@H]2COCc2cccc(C(=O)O)c2)cc1 (stereo partly shown) | > 10000 nM | > 10 µM | 517 nM | – | – |
| CCCC(O)c1ccc(N2C(=O)CC[C@@H]2COCc2ccc(C(=O)O)s2)cc1 (stereo partly shown) | 426 nM | > 10 µM | 27 nM | 1640 nM | – |
| CCCCCC(=O)c1ccc(N2C(=O)CC[C@@H]2COCc2ccc(C(=O)O)s2)cc1 | 215 nM | > 10 µM | 8 nM | 163 nM | – |
| CC(C)(C)c1ccc(N2C(=O)CC[C@@H]2COCCCCC(=O)O)cc1 | > 10000 nM | > 10 µM | – | – | EC50 [2, 11]: > 10 µM |
| CC(C)(C)c1ccc(N2C(=O)CC[C@@H]2COCc2cccc(C(=O)O)c2)cc1 | > 10000 nM | > 10 µM | – | – | EC50 [2, 11]: > 10 µM |
| CCCCCC(O)c1ccc(N2C(=O)CC[C@@H]2COCc2ccc(C(=O)O)o2)cc1 (stereo partly shown) | 388 nM | > 10 µM | 26 nM | 2030 nM | EC50 [3, 12]: 1930 nM |
| CC(C)C(O)c1ccc(N2C(=O)CC[C@@H]2COCc2ccc(C(=O)O)o2)cc1 (stereo partly shown) | 7670 nM | > 10 µM | 1220 nM | > 10000 nM | – |
| O=C(O)c1ccc(COC[C@H]2CCC(=O)N2c2ccc(C(O)Cc3ccccc3)cc2)o1 (stereo partly shown) | 1230 nM | > 10 µM | 148 nM | 2290 nM | – |
| CCCCC(O)c1ccc(N2C(=O)CC[C@@H]2COCc2ccc(C(=O)O)s2)cc1 (stereo partly shown) | 212 nM | > 10 µM | 8 nM | 387 nM | – |
| CCCCCC(O)c1ccc(N2C(=O)CC[C@@H]2COCc2ccc(C(=O)O)s2)cc1 (single isomer, unassigned) [drawing 149] | – | 6.03 µM | 1.5 nM | 116 nM | EC50 [2, 11]: > 10 µM; EC50 [3, 12]: 1200 nM |
| CCCCCC(O)c1ccc(N2C(=O)CC[C@@H]2CCCc2ccc(C(=O)O)s2)cc1 (single isomer, unassigned) [drawing 150] | 6 nM | > 10 µM | – | – | EC50 [2, 11]: > 10 µM; EC50 [3, 12]: 12 nM |
| CCCCCCC(O)c1ccc(N2C(=O)CC[C@@H]2COCc2ccc(C(=O)O)s2)cc1 (single isomer, unassigned) [drawing 153] | – | 3.29 µM | 4 nM | – | EC50 [3, 12]: 621 nM |
| CCCCCCC(O)c1ccc(N2C(=O)CC[C@@H]2COCc2ccc(C(=O)O)s2)cc1 (single isomer, unassigned) [drawing 181] | 49 nM | 3.29 µM | 4 nM | 201 nM | EC50 [3, 12]: 621 nM |
| CCCCCC(O)c1ccc(N2C(=O)CC[C@@H]2/C=C/Cc2ccc(C(=O)O)s2)cc1 (stereo partly shown) [drawing 144] | 226 nM | > 10 µM | 15 nM | 1380 nM | – |
| CCCCCC(O)c1ccc(N2C(=O)CC[C@@H]2COc2ccc(C(=O)O)cc2)cc1 (stereo partly shown) [drawing 157] | – | 8.75 µM | – | 22700 nM | – |
| CCCCCC(O)c1ccc(N2C(=O)CC[C@@H]2/C=C/Cc2ccc(C(=O)O)s2)cc1 (stereo partly shown) [drawing 172] | – | – | – | – | EC50 [3, 12]: 1410 nM |
| CCCCCC(O)c1ccc(N2C(=O)CC[C@@H]2COc2ccc(C(=O)O)cc2)cc1 (stereo partly shown) [drawing 185] | 7280 nM | 8.75 µM | – | 22700 nM | – |
